Source: ChEMBL document CHEMBL2331210, “New 2-benzylsulfanyl-nicotinic acid based 1,3,4-oxadiazoles: their synthesis and biological evaluation” (2013)
In brackets after ≈: the same amount, converted by molar mass.

Assays:
Format in all cases: functional
Staphylococcus aureus = test: Antimicrobial activity against Staphylococcus aureus MTCC 96 assessed as growth inhibition measured after overnight incubation by broth dilution method
K562 = test: Antitumor activity against human K562 cells assessed as cell growth at 0.1 uM; conditions: read-out: Activity
LOX IMVI = test: Antitumor activity against human LOXIMVI cells assessed as cell growth at 0.1 uM; conditions: read-out: Activity
Malme-3M = test: Antitumor activity against human MALME-3M cells assessed as cell growth at 0.1 uM; conditions: read-out: Activity
UO-31 = test: Antitumor activity against human UO31 cells assessed as cell growth at 0.1 uM; conditions: read-out: Activity
HT-29 = test: Antitumor activity against human HT-29 cells assessed as cell growth at 0.1 uM; conditions: read-out: Activity
MDA-MB-468 = test: Antitumor activity against human MDA-MB-468 cells assessed as cell growth at 0.1 uM; conditions: read-out: Activity
Aspergillus niger = test: Antimicrobial activity against Aspergillus niger MTCC 282 assessed as growth inhibition measured after overnight incubation by broth dilution method
Candida albicans = test: Antimicrobial activity against Candida albicans MTCC 227 assessed as growth inhibition measured after overnight incubation by broth dilution method
SK-OV-3 = test: Antitumor activity against human SKOV3 cells assessed as cell growth at 0.1 uM; conditions: read-out: Activity
RPMI-8226 = test: Antitumor activity against human RPMI8226 cells assessed as cell growth at 0.1 uM; conditions: read-out: Activity
MOLT-4 = test: Antitumor activity against human MOLT4 cells assessed as cell growth at 0.1 uM; conditions: read-out: Activity
HCT-15 = test: Antitumor activity against human HCT15 cells assessed as cell growth at 0.1 uM; conditions: read-out: Activity
SK-MEL-28 = test: Antitumor activity against human SK-MEL-28 cells assessed as cell growth at 0.1 uM; conditions: read-out: Activity
BT-549 = test: Antitumor activity against human BT549 cells assessed as cell growth at 0.1 uM; conditions: read-out: Activity
Pseudomonas aeruginosa = test: Antimicrobial activity against Pseudomonas aeruginosa MTCC 2488 assessed as growth inhibition measured after overnight incubation by broth dilution method
M14 = test: Antitumor activity against human M14 cells assessed as cell growth at 0.1 uM; conditions: read-out: Activity
TK-10 = test: Antitumor activity against human TK10 cells assessed as cell growth at 0.1 uM; conditions: read-out: Activity
NCI/ADR-RES = test: Antitumor activity against human NCI/ADR-RES cells assessed as cell growth at 0.1 uM; conditions: read-out: Activity
SNB-75 = test: Antitumor activity against human SNB75 cells assessed as cell growth at 0.1 uM; conditions: read-out: Activity
SR = test: Antitumor activity against human SR cells assessed as cell growth at 0.1 uM; conditions: read-out: Activity
SN12C = test: Antitumor activity against human SN12C cells assessed as cell growth at 0.1 uM; conditions: read-out: Activity
T47D = test: Antitumor activity against human T47D cells assessed as cell growth at 0.1 uM; conditions: read-out: Activity
KM12 = test: Antitumor activity against human KM12 cells assessed as cell growth at 0.1 uM; conditions: read-out: Activity
OVCAR-5 = test: Antitumor activity against human OVCAR5 cells assessed as cell growth at 0.1 uM; conditions: read-out: Activity
SW-620 = test: Antitumor activity against human SW620 cells assessed as cell growth at 0.1 uM; conditions: read-out: Activity
Streptococcus pyogenes = test: Antimicrobial activity against Streptococcus pyogenes MTCC 442 assessed as growth inhibition measured after overnight incubation by broth dilution method
UACC-257 = test: Antitumor activity against human UACC257 cells assessed as cell growth at 0.1 uM; conditions: read-out: Activity
PC-3 = test: Antitumor activity against human PC3 cells assessed as cell growth at 0.1 uM; conditions: read-out: Activity
NCI-H522 = test: Antitumor activity against human NCI-H522 cells assessed as cell growth at 0.1 uM; conditions: read-out: Activity
SK-MEL-5 = test: Antitumor activity against human SK-MEL-5 cells assessed as cell growth at 0.1 uM; conditions: read-out: Activity
[1] = tested on: Mycobacterium tuberculosis; test: Antitubercular activity against Mycobacterium tuberculosis H37Rv assessed as growth inhibition after 12 to 28 days by L.J. agar MIC method
[2] = Antitumor activity against human EKVX cells assessed as cell growth at 0.1 uM; conditions: read-out: Activity
CAKI-1 = test: Antitumor activity against human CAKI-1 cells assessed as cell growth at 0.1 uM; conditions: read-out: Activity
SNB-19 = test: Antitumor activity against human SNB19 cells assessed as cell growth at 0.1 uM; conditions: read-out: Activity
U-251 = test: Antitumor activity against human U251 cells assessed as cell growth at 0.1 uM; conditions: read-out: Activity
OVCAR-8 = test: Antitumor activity against human OVCAR8 cells assessed as cell growth at 0.1 uM; conditions: read-out: Activity
A498 = test: Antitumor activity against human A498 cells assessed as cell growth at 0.1 uM; conditions: read-out: Activity
HCT-116 = test: Antitumor activity against human HCT116 cells assessed as cell growth at 0.1 uM; conditions: read-out: Activity
UACC-62 = test: Antitumor activity against human UACC62 cells assessed as cell growth at 0.1 uM; conditions: read-out: Activity
MCF7 = test: Antitumor activity against human MCF7 cells assessed as cell growth at 0.1 uM; conditions: read-out: Activity
SF-268 = test: Antitumor activity against human SF268 cells assessed as cell growth at 0.1 uM; conditions: read-out: Activity
IGROV-1 = test: Antitumor activity against human IGROV1 cells assessed as cell growth at 0.1 uM; conditions: read-out: Activity
NCI-H226 = test: Antitumor activity against human NCI-H226 cells assessed as cell growth at 0.1 uM; conditions: read-out: Activity
MDA-MB-231 = test: Antitumor activity against human MDA-MB-231/ATCC cells assessed as cell growth at 0.1 uM; conditions: read-out: Activity
OVCAR-4 = test: Antitumor activity against human OVCAR4 cells assessed as cell growth at 0.1 uM; conditions: read-out: Activity
SF-295 = test: Antitumor activity against human SF295 cells assessed as cell growth at 0.1 uM; conditions: read-out: Activity
OVCAR-3 = test: Antitumor activity against human OVCAR3 cells assessed as cell growth at 0.1 uM; conditions: read-out: Activity
HOP-62 = test: Antitumor activity against human HOP62 cells assessed as cell growth at 0.1 uM; conditions: read-out: Activity
DU-145 = test: Antitumor activity against human DU145 cells assessed as cell growth at 0.1 uM; conditions: read-out: Activity
ACHN = test: Antitumor activity against human ACHN cells assessed as cell growth at 0.1 uM; conditions: read-out: Activity
SF-539 = test: Antitumor activity against human SF539 cells assessed as cell growth at 0.1 uM; conditions: read-out: Activity
MDA-MB-435 = test: Antitumor activity against human MDA-MB-435 cells assessed as cell growth at 0.1 uM; conditions: read-out: Activity
Aspergillus clavatus = test: Antimicrobial activity against Aspergillus clavatus MTCC 1323 assessed as growth inhibition measured after overnight incubation by broth dilution method
A549 = test: Antitumor activity against human A549/ATCC cells assessed as cell growth at 0.1 uM; conditions: read-out: Activity
RXF 393 = test: Antitumor activity against human RXF393 cells assessed as cell growth at 0.1 uM; conditions: read-out: Activity
[3] = Antitumor activity against human HCC2998 cells assessed as cell growth at 0.1 uM; conditions: HCC 2998, read-out: Activity
NCI-H23 = test: Antitumor activity against human NCI-H23 cells assessed as cell growth at 0.1 uM; conditions: read-out: Activity
[4] = Antitumor activity against human Hs 578T cells assessed as cell growth at 0.1 uM; conditions: read-out: Activity
HL-60 = test: Antitumor activity against human HL60(TB) cells assessed as cell growth at 0.1 uM; conditions: read-out: Activity
NCI-H460 = test: Antitumor activity against human NCI-H460 cells assessed as cell growth at 0.1 uM; conditions: read-out: Activity
Escherichia coli = test: Antimicrobial activity against Escherichia coli MTCC 443 assessed as growth inhibition measured after overnight incubation by broth dilution method
CCRF-CEM = test: Antitumor activity against human CCRF-CEM cells assessed as cell growth at 0.1 uM; conditions: read-out: Activity

With `c1ccc(CSc2ncccc2-c2nnc(SCCN3CCOCC3)o2)cc1` the MIC (Staphylococcus aureus) was 500 µg/mL (≈ 1210 µM), the growth at 0.1 µM (K562) was 117% and the growth at 0.1 µM (LOX IMVI) was 108%. For the same compound, the growth at 0.1 µM (Malme-3M) was 111%, the growth at 0.1 µM (UO-31) was 89.4% and the growth at 0.1 µM (HT-29) was 111%. It also gave a growth at 0.1 µM (MDA-MB-468) of 98.3%, an MIC (Aspergillus niger) of 1000 µg/mL (≈ 2410 µM) and an MIC (Candida albicans) of 1000 µg/mL (≈ 2410 µM). It also gave a growth at 0.1 µM (SK-OV-3) of 109%, a growth at 0.1 µM (RPMI-8226) of 104% and a growth at 0.1 µM (MOLT-4) of 103%. The growth at 0.1 µM (HCT-15) was 105%, the growth at 0.1 µM (SK-MEL-28) was 107% and the growth at 0.1 µM (BT-549) was 112%. It also gave an MIC (Pseudomonas aeruginosa) of 200 µg/mL (≈ 482 µM), a growth at 0.1 µM (M14) of 108% and a growth at 0.1 µM (TK-10) of 118%. It also gave a growth at 0.1 µM (NCI/ADR-RES) of 107%, a growth at 0.1 µM (SNB-75) of 79.6% and a growth at 0.1 µM (SR) of 104%. For the same compound, the growth at 0.1 µM (SN12C) was 114%, the growth at 0.1 µM (T47D) was 101% and the growth at 0.1 µM (KM12) was 107%. It also gave a growth at 0.1 µM (OVCAR-5) of 119%, a growth at 0.1 µM (SW-620) of 107% and an MIC (Streptococcus pyogenes) of 200 µg/mL (≈ 482 µM). The growth at 0.1 µM (UACC-257) was 147%, the growth at 0.1 µM (PC-3) was 111% and the growth at 0.1 µM (NCI-H522) was 105%. The growth at 0.1 µM (SK-MEL-5) was 102%, the “growth inhibition (GI)” value [1] was 99% and the MIC ([1]; Mycobacterium tuberculosis, H37Rv) was 25 µg/mL (≈ 60.3 µM). It also gave a growth at 0.1 µM [2] of 108%, a growth at 0.1 µM (CAKI-1) of 100% and a growth at 0.1 µM (SNB-19) of 115%. For the same compound, the growth at 0.1 µM (U-251) was 117%, the growth at 0.1 µM (OVCAR-8) was 109% and the growth at 0.1 µM (A498) was 107%. For the same compound, the growth at 0.1 µM (HCT-116) was 108%, the growth at 0.1 µM (UACC-62) was 113% and the growth at 0.1 µM (MCF7) was 94.4%. It also gave a growth at 0.1 µM (SF-268) of 107%, a growth at 0.1 µM (IGROV-1) of 98.3% and a growth at 0.1 µM (NCI-H226) of 114%. For the same compound, the growth at 0.1 µM (MDA-MB-231) was 114%, the growth at 0.1 µM (OVCAR-4) was 106% and the growth at 0.1 µM (SF-295) was 106%. The growth at 0.1 µM (OVCAR-3) was 120%, the growth at 0.1 µM (HOP-62) was 116% and the growth at 0.1 µM (DU-145) was 112%. It also gave a growth at 0.1 µM (ACHN) of 124%, a growth at 0.1 µM (SF-539) of 132% and a growth at 0.1 µM (MDA-MB-435) of 114%. The MIC (Aspergillus clavatus) was 1000 µg/mL (≈ 2410 µM), the growth at 0.1 µM (A549) was 112% and the growth at 0.1 µM (RXF 393) was 123%. The growth at 0.1 µM [3] was 116%, the growth at 0.1 µM (NCI-H23) was 104% and the growth at 0.1 µM [4] was 133%. It also gave a growth at 0.1 µM (HL-60) of 101%, a growth at 0.1 µM (NCI-H460) of 122% and an MIC (Escherichia coli) of 200 µg/mL (≈ 482 µM). The growth at 0.1 µM (CCRF-CEM) was 103%.
